Earlier results on two compounds are cited in patent EP4260848A1, “PHARMACEUTICAL COMPOSITION FOR SOLID DOSAGE FORM CONTAINING NILOTINIB AND PROCESS FOR ITS PREPARATION” (Lotus Pharmaceutical Co., Ltd., priority 2022, dated 2023).

Structures can show the parent of a compound that is named as a salt.

Assay in data set [1]: not given
The source holds these as a separate data set.

Take `Cc1cn(-c2cc(NC(=O)c3ccc(C)c(Nc4nccc(-c5cccnc5)n4)c3)cc(C(F)(F)F)c2)cn1` [Nilotinib hydrochloride]: the aqueous solubility entry (all solid forms (anhydrates, hydrates, solvates)) is “poor aqueous solubility”.
For `Cc1cn(-c2cc(NC(=O)c3ccc(C)c(Nc4nccc(-c5cccnc5)n4)c3)cc(C(F)(F)F)c2)cn1` [Nilotinib, 4-methyl-N-[3-(4-methylimidazol-1-yl)-5-(trifluoromethyl)phenyl]-3-[(4-pyridin-3-ylpyrimidin-2-yl)amino]benzamide], the “solubility in aqueous solutions” value (dependence on pH) is “decreases with increasing pH”. In addition, the pKa1 in data set [1] (determined) is recorded as 2.1. Also, the pKa2 in data set [1] (estimated) is 5.4.
